Measurements as given in paper PMC6234229, “The role of loops B and C in determining the potentiation of GABAA receptors by midazolam” (Pharmacology Research & Perspectives, 2018).

Legend:
Type in all cases: cell-based
α6β2γ2 GABAA receptor = target: T1, α6β2γ2 GABAA receptor (Homo sapiens, UniProt P18507+P47870+Q16445); experiment: GABA concentration-response assay, whole-cell patch clamp, HEK293T; conditions: GABA Hill fit
T1 construct: expressed in transfected cells; host or cells: HEK293T
Source text: (§1) Human (Homo sapiens) GABAA subunits (α1‐6, β2, γ2s) were subcloned into pcDNA3.1+ vectors with a cytomegalovirus (CMV) promoter. The hβ2 and hα3 sequences were humanized rat (Rattus norvegicus) cDNA with amino acid substitutions made to match the human protein sequence. The α1‐3, α5, β2, and γ2s subunits were a generous gift from Neil L. Harrison (Columbia University Medical Center, NY). The α4 subunit was obtained from GenScript (Piscataway, NJ), and the α6 subunit was a generous gift from Robert L. McDonald (Vanderbilt University, TN). All point mutations (listed in Figure 1C) were introduced using the QuikChange Lightening site‐directed mutagenesis kit (Agilent Technologies, Santa Clara, CA) according to the manufacturer's instructions and were confirmed by sequencing (Eurofins MWG Operon, Louisville, KY).
(§2) Human embryonic kidney cells containing the SV40 T‐antigen (HEK293T) were acquired from American Type Culture Collection (ATCC®, Manassas, VA), catalogue number, CRL3216. HEK293T cells were maintained at 37°C and 5% CO2 in Eagle Minimum Essential Medium (MEM) supplemented with 5% fetal bovine serum (Atlanta Biologicals Inc., Flowery Branch, GA), 40 μM L‐glutamine, 100 U/mL penicillin and 0.1 mM streptomycin. Cells were passaged regularly when they reached 70% confluency using trypsin. Cells were not passaged more than 22 times. New cells were revived from frozen stocks at passage 2‐4. Cells used for in vitro electrophysiology experiments were grown on poly‐D‐lysine‐coated glass coverslips (No.2, VWR, Radnor, PA) and transfected with X‐tremeGENE (Roche Diagnostics, Indianapolis, IN) with the desired receptor subunit cDNAs at a 1:1:1 ratio to express αxβ2γ2s receptors (2 μg total cDNA) and with 0.5 μg green fluorescent protein (GFP) as an expression marker. The γ2s incorporation into receptors was tested with zinc inhibition assays regularly.24 Patch clamp experiments were performed on cells at 24‐72 hours post‐transfection. All experiments were performed at 22°C. Experiments consisted of at least five cells recorded per day from at least two transfections across 3‐4 days to control for cell health and transfection efficiency. At least three cells expressing wild‐type receptors were recorded on days that mutant receptors were tested to provide a time‐matched expression control. All reagents were purchased from Sigma‐Aldrich (St. Louis, MO) unless otherwise stated.
(§3) Extracellular solution contained 161 mM NaCl, 3 mM KCl, 1 mM MgCl2, 1.5 mM CaCl2, 10 mM HEPES, and 6 mM D‐glucose, adjusted to pH 7.4 with NaOH (320‐330 mOsm). […] The perfusion system was controlled by protocols written in pClamp 9 (Molecular Devices, LLC., Sunnyvale, CA). Whole‐cell currents were recorded at ‐60 mV, filtered at 100 Hz and sampled at 200 Hz with a MultiClamp 700B amplifier (Molecular Devices, LLC) and DigiData 1322A (Molecular Devices, LLC) digitizer. […] Cells were recorded with the midazolam protocol no more than two times to avoid desensitization and incomplete washout or irreversible modulation.
(§4) Recordings were analyzed using MATLAB (Math Works, Inc., Natick, MA). […] The maximum peak current, EC50 and Hill coefficient were estimated for assays from each cell. When Hill parameters are estimated from whole‐cell recordings, the changes in the parameters across receptor conditions can be ascribed to the following changes in receptor physiology. Changes in maximum current can be due to changes in the single‐channel conductance or the rate of desensitization. Changes in cell surface receptor expression can cause minor changes in maximum current, but are unlikely to occur in the time course of our experimental protocol. […] More often minor changes in the Hill coefficient are attributed to the altered homogeneity in the receptor population expressed by the HEK293T cell. For example, a shallower Hill coefficient could be caused by a shift in the population of receptors from mostly αβγ receptors to a combination of both αβ and αβγ receptors.

[1] = target: T2, α2(T162P)β2γ2 GABAA receptor (Homo sapiens, UniProt P18507+P47869+P47870, T190P); experiment: as above; conditions: GABA Hill fit
T2 construct: expressed in transfected cells; host or cells: HEK293T
Source text: as §1, §2, §3, §4

[2] = target: T3, α5(H105R)β2γ2 GABAA receptor (Homo sapiens, UniProt P18507+P31644+P47870, H136R); experiment: as above; conditions: GABA Hill fit
T3 construct: expressed in transfected cells; host or cells: HEK293T
Source text: as §1, §2, §3, §4

[3] = target: T4, α4(R100H)β2γ2 GABAA receptor (Homo sapiens, UniProt P18507+P47870+P48169, R135H); experiment: Midazolam potentiation of EC10 GABA currents, whole-cell patch clamp, HEK293T
T4 construct: expressed in transfected cells; host or cells: HEK293T

[4] = target: T5, α3(T187P)β2γ2 GABAA receptor (Homo sapiens, UniProt P18507+P34903+P47870, T215P); experiment: as above
T5 construct: expressed in transfected cells; host or cells: HEK293T

[5] = target: T6, α3(S230I)β2γ2 GABAA receptor (Homo sapiens, UniProt P18507+P34903+P47870, S258I); experiment: as above
T6 construct: expressed in transfected cells; host or cells: HEK293T

[6] = target: T7, α5(S209I)β2γ2 GABAA receptor (Homo sapiens, UniProt P18507+P31644+P47870, S240I); experiment: as above
T7 construct: expressed in transfected cells; host or cells: HEK293T

[7] = target: T8, α2(S205I)β2γ2 GABAA receptor (Homo sapiens, UniProt P18507+P47869+P47870, S233I); experiment: as above
T8 construct: expressed in transfected cells; host or cells: HEK293T

T4 sequence (P48169 36-554 R135H): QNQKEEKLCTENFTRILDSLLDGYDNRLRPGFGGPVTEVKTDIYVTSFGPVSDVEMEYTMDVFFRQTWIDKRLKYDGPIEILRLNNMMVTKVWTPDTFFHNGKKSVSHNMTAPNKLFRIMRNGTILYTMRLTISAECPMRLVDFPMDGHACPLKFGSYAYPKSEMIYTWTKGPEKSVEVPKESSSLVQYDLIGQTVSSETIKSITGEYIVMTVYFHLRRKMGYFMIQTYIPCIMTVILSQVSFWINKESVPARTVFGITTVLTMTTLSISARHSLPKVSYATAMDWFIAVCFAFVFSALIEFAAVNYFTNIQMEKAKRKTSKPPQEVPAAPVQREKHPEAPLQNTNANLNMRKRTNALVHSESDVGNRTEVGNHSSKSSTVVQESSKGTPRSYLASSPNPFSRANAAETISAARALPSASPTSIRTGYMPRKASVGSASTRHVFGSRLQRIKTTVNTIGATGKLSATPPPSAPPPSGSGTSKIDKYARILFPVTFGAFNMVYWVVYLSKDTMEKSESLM
T4 sequence (P47870 26-474 isoform P47870-1 limits assumed, stated change not applied): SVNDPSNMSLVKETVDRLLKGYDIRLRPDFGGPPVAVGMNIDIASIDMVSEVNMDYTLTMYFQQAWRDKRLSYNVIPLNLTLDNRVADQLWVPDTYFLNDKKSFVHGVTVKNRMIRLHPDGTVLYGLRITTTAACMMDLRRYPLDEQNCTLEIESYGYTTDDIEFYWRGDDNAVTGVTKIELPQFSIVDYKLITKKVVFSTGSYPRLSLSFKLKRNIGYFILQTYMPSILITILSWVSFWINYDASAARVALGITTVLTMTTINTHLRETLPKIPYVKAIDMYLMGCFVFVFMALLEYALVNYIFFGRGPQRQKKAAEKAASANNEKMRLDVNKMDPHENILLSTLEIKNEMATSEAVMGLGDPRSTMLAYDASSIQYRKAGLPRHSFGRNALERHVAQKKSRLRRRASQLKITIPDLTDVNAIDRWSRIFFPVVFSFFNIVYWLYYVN
T4 sequence (P18507 40-467 isoform P18507-1 limits assumed, stated change not applied): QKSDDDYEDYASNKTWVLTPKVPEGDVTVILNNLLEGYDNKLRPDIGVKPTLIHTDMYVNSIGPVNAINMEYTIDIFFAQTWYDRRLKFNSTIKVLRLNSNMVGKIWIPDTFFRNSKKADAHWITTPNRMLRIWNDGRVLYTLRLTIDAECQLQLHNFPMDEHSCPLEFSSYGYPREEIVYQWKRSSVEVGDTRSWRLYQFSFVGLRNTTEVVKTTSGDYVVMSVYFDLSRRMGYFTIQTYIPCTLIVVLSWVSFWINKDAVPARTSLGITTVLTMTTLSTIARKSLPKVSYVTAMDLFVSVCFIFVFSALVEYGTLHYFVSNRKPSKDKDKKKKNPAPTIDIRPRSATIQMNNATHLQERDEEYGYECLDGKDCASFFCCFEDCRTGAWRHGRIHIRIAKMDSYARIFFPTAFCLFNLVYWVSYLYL
T6 sequence (P34903 29-492 S258I): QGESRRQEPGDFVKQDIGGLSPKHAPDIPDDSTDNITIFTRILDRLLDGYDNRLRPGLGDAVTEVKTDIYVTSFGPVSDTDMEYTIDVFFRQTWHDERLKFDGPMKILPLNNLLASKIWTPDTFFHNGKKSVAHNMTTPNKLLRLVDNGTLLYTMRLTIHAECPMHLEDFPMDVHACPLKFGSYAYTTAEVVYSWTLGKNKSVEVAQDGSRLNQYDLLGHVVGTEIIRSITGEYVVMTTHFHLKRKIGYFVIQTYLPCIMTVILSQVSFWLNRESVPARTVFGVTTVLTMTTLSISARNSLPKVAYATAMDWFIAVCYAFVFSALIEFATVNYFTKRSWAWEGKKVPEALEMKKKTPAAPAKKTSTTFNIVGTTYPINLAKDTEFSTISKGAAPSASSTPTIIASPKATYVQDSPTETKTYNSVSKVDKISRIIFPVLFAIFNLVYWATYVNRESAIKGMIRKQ
T6 sequence (P47870 25-512 limits assumed): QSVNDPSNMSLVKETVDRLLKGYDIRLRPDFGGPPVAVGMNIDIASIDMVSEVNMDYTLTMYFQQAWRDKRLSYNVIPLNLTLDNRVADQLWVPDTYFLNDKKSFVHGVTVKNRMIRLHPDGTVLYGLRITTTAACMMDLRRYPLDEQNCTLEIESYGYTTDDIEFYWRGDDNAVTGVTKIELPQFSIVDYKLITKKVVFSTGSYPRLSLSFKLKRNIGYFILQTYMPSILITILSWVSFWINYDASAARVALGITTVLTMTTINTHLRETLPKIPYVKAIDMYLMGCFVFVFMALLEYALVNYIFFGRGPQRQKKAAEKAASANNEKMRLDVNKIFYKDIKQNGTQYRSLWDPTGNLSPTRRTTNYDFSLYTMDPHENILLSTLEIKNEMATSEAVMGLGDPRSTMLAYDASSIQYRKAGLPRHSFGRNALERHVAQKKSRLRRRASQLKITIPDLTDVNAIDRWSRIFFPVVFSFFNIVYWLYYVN
T6 sequence (P18507 40-467 isoform P18507-1 limits assumed, stated change not applied): as the sequence (P18507 40-467 isoform P18507-1 limits assumed, stated change not applied) above
T7 sequence (P31644 32-462 S240I): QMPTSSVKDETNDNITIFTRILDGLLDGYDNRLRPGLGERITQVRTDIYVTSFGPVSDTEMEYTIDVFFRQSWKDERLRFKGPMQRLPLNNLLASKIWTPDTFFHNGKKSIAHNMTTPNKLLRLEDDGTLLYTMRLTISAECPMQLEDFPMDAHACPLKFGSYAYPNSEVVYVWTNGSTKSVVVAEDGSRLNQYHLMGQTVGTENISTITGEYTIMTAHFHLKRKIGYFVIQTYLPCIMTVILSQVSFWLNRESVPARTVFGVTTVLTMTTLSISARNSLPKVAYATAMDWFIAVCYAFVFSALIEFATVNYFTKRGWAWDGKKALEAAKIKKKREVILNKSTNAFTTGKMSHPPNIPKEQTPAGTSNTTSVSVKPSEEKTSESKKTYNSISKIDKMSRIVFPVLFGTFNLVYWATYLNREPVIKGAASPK
T7 sequence (P47870 26-474 isoform P47870-1 limits assumed, stated change not applied): as the sequence (P47870 26-474 isoform P47870-1 limits assumed, stated change not applied) above
T7 sequence (P18507 40-467 isoform P18507-1 limits assumed, stated change not applied): as the sequence (P18507 40-467 isoform P18507-1 limits assumed, stated change not applied) above

For `NCCCC(=O)O` [GABA, γ‐aminobutyric acid], the Hill coefficient (α6β2γ2 GABAA receptor) was 1.405 ± 0.074, the “Max Current (pA)” value (α6β2γ2 GABAA receptor) was -3276 ± 578.1 pA and the Hill coefficient [1] was 1.494 ± 0.101. For the same compound, the “Max Current (pA)” value [1] was -1765 ± 246.0 pA, the Hill coefficient [2] was 1.269 ± 0.084 and the “Max Current (pA)” value [2] was -6799 ± 919.2 pA.
In the case of `Cc1ncc2n1-c1ccc(Cl)cc1C(c1ccccc1F)=NC2` [midazolam], the EC50 [3] is reported as 74 ± 3.44 nM, the “Midazolam potentiation (%)” value ([3]; 10 nM MDZ + EC10 GABA, α4(R100H)) is reported as 26.12 ± 4.95% and the “Midazolam potentiation (%)” value ([3]; 50 nM MDZ + EC10 GABA, α4(R100H)) is reported as 54.65 ± 8.66%. The “Midazolam potentiation (%)” value ([3]; 100 nM MDZ + EC10 GABA, α4(R100H)) was 87.48 ± 13.68%, the “Midazolam potentiation (%)” value ([3]; 500 nM MDZ + EC10 GABA, α4(R100H)) was 117.13% and the “Midazolam potentiation (%)” value ([3]; 1000 nM MDZ + EC10 GABA, α4(R100H)) was 125.77%. The “Max potentiation (%)” value ([3]; α4(R100H), Hill fit, midazolam 10-1000 nM + EC10 GABA) was 113.8 ± 21.6%, the Hill coefficient ([3]; α4(R100H), midazolam Hill fit) was 1.187 ± 0.150 and the EC50 [4] was 55.2 ± 2.91 nM. For the same compound, the “Midazolam potentiation (%)” value ([4]; 10 nM MDZ + EC10 GABA, α3(T187P)) was 23.71 ± 6.37%, the “Midazolam potentiation (%)” value ([4]; 50 nM MDZ + EC10 GABA, α3(T187P)) was 92.47 ± 12.51% and the “Midazolam potentiation (%)” value ([4]; 100 nM MDZ + EC10 GABA, α3(T187P)) was 168.56 ± 23.08%. For the same compound, the “Midazolam potentiation (%)” value ([4]; 500 nM MDZ + EC10 GABA, α3(T187P)) was 212.97 ± 30.06%, the “Midazolam potentiation (%)” value ([4]; 1000 nM MDZ + EC10 GABA, α3(T187P)) was 213.30 ± 30.99% and the “Max potentiation (%)” value ([4]; α3(T187P), Hill fit, midazolam 10-1000 nM + EC10 GABA) was 219.6 ± 32.3%. For the same compound, the Hill coefficient ([4]; α3(T187P), midazolam Hill fit) was 1.963 ± 0.224, the “Midazolam potentiation (%)” value ([5]; 10 nM MDZ + EC10 GABA, α3(S230I)) was 37.59 ± 4.12% and the “Midazolam potentiation (%)” value ([5]; 50 nM MDZ + EC10 GABA, α3(S230I)) was 139.86 ± 12.63%. For the same compound, the “Midazolam potentiation (%)” value ([5]; 100 nM MDZ + EC10 GABA, α3(S230I)) was 280.95 ± 24.73%, the “Midazolam potentiation (%)” value ([5]; 500 nM MDZ + EC10 GABA, α3(S230I)) was 413.27 ±37.70% and the “Midazolam potentiation (%)” value ([5]; 1000 nM MDZ + EC10 GABA, α3(S230I)) was 428.92 ± 38.09%. For the same compound, the EC50 ([5]; EC50 (nM), α3(S230I), midazolam potentiation of EC10 GABA) was 73.6 nM, the “enhancement of maximum midazolam potentiation relative to wildtype” value ([5]; α3(S230I) vs α3β2γ2) was “approximately 63%” and the “Max potentiation (%)” value ([5]; α3(S230I), Hill fit, midazolam 10-1000 nM + EC10 GABA) was 436.0 ± 39.4%. For the same compound, the Hill coefficient ([5]; α3(S230I), midazolam Hill fit) was 1.655 ± 0.061, the EC50 [6] was 65.4 ± 2.76 nM and the “Midazolam potentiation (%)” value ([6]; 10 nM MDZ + EC10 GABA, α5(S209I)) was 15.95 ± 6.58%. The “Midazolam potentiation (%)” value ([6]; 50 nM MDZ + EC10 GABA, α5(S209I)) was 62.43 ± 11.51%, the “Midazolam potentiation (%)” value ([6]; 100 nM MDZ + EC10 GABA, α5(S209I)) was 127.16 ± 19.87% and the “Midazolam potentiation (%)” value ([6]; 500 nM MDZ + EC10 GABA, α5(S209I)) was 168.94 ± 23.17%. For the same compound, the “Midazolam potentiation (%)” value ([6]; 1000 nM MDZ + EC10 GABA, α5(S209I)) was 170.92 ± 25.92%, the “increase of maximum midazolam potentiation relative to wildtype” value ([6]; α5(S209I) vs α5β2γ2) was “approximately 63%” and the “Max potentiation (%)” value ([6]; α5(S209I), Hill fit, midazolam 10-1000 nM + EC10 GABA) was 175.1 ± 26.6%. The Hill coefficient ([6]; α5(S209I), midazolam Hill fit) was 2.232 ± 0.334, the EC50 [7] was 41.7 ± 4.99 nM and the “Midazolam potentiation (%)” value ([7]; 10 nM MDZ + EC10 GABA, α2(S205I)) was 21.06 ± 6.24%. The “Midazolam potentiation (%)” value ([7]; 50 nM MDZ + EC10 GABA, α2(S205I)) was 54.26 ± 10.25%, the “Midazolam potentiation (%)” value ([7]; 100 nM MDZ + EC10 GABA, α2(S205I)) was 86.20 ± 14.74% and the “Midazolam potentiation (%)” value ([7]; 500 nM MDZ + EC10 GABA, α2(S205I)) was 102.63 ± 19.49%. The “Midazolam potentiation (%)” value ([7]; 1000 nM MDZ + EC10 GABA, α2(S205I)) was 97.62 ± 20.12%, the “Max potentiation (%)” value ([7]; α2(S205I), Hill fit, midazolam 10-1000 nM + EC10 GABA) was 116.4 ± 23.0% and the Hill coefficient ([7]; α2(S205I), midazolam Hill fit) was 1.362 ± 0.140.
